27 compounds from patent US20250282785A1, “PYRROLIDINONE DERIVATIVES AS INHIBITORS OF NF KAPPA B INDUCING KINASE” (priority 2022, published 2025) can be followed below.

Test [1] deals with Recombinant Human NF-Kappab-Inducing Kinase (NIK/MAP3K14) (Homo sapiens, UniProt Q99558). The experiment in a line: Inhibition of auto-phosphorylation of recombinant human NIK/MAP3K14 (AlphaScreen). Conditions: NIK/MAP3K14 auto-phosphorylation, 5 microM ATP, 1 nM enzyme, 2 h at 25° C.; average of values; read-out: Assay 1 IC50. Type of test: biochemical. As to the method:
Biological Assay 1: Inhibition of Auto-Phosphorylation of Recombinant Human NF-Kappab-Inducing Kinase (NIK/MAP3K14) Activity (AlphaScreen®)
NIK/MAP3K14 auto-phosphorylation activity was measured using the AlphaScreen® ((αscreen) format (Perkin ElmeR). All compounds tested were dissolved in dimethyl sulfoxide (DMSO) and further dilutions were made in assay buffer. Final DMSO concentration was 0.7% (v/v) in assays. Assay buffer was 50 mM Tris pH 7.5 containing 1 mM EGTA (ethylene glycol tetraacetic acid), 1 mM DTT (dithiothreitol), 0.1 mM Na3VO4, 5 mM MgCl2, 0.01% Tween® 20. Assays were carried out in 384 well Proxiplates (Perkin ElmeR). Incubations consisted of compound, 5 microM Adenosine-5′-triphosphate (ATP), and 1 nM NIK/MAP3K14. Incubations were initiated by addition of GST-tagged NIK/MAP3K14 enzyme, carried out for 2 h at 25° C. and terminated by addition of stop buffer containing anti-phospho-IKK Ser176/180 antibody. Protein A Acceptor and Glutathione-donor beads were added before reading using an EnVision® Multilabel Plate Reader (Perkin ElmeR). Signal obtained in the wells was normalized using high (full enzyme activity, 0.7% DMSO) and low controls (no enzyme activity, 0.7% DMSO, no ATP). IC50's were determined by fitting a sigmoidal curve to % inhibition of control versus Log10 compound concentration.
(Bead proximity is the source of the signal in Alpha formats.)

The subject of test [2] is p-IKKα levels in L363 (NIK translocated multiple myeloma) cells. The experiment in a line: Effect of compounds on p-IKKα levels in L363 cells (AlphaLISA SureFire Ultra). Format: cell-based. Conditions: Homo sapiens, L-363; L363 cells, BAFF stimulated, MG132, 6 h; average of values; read-out: Assay 2 IC50. As to the method: Biological Assay 2: Effect of Compounds on p-IKKα Levels in L363 (NIK Translocated Multiple Myeloma) Cells
All compounds tested were dissolved and serially diluted in DMSO, 1:3 dilution for 11 points in an Echo compatible plate. 100% DMSO is added to columns 12 and 24 of the plate to serve as high and low signal controls. This compound plate was used to spot 20 nl of compound or DMSO into a Greiner 384 well TC plate (781080). Final DMSO concentration was […] (v/v) in cell assays. Human L363 cells (ATCC) were cultured in RPMI 1640 medium supplemented with GlutaMax, non-essential amino acids, sodium pyruvate and 10% fetal bovine serum. Cells were routinely maintained at densities of 0.2×10^6 cells per ml −2×10^6 cells per ml at 37° C. in a humidified 5% CO2 atmosphere incubator. Cells were passaged twice a week splitting back to obtain the low density. The day before the assay, cells were washed twice in HBSS, resuspended in DMEM+0.5% IgG and protease free BSA (Jackson Immuno Research Laboratories), +/−250 ng/ml recombinant human B-cell activating factor (BAFF/BLyS/TNFSF13B) and incubated overnight at 37° C. in a humidified 5% CO2 atmosphere (bulk stimulation with or without BAFF). The next day, cell concentration was adjusted to 1×10^7 cells/ml in DMEM+/−250 ng/ml BAFF+/−10 uM MG132 and plated at 10 ul/well into compound or DMSO spotted 384 well TC plates. Seeded cells were incubated at 37° C. in a humidified 5% CO2 atmosphere for 6 h. After 6 h, plates were removed from the incubator and cell lysis was achieved by the addition of 2.5 μl 5× lysis buffer containing protease and phosphatase inhibitors, followed by shaking on a plate shaker at room temperature for 15 min. At the end of this incubation, lysed cells were sequentially treated and incubated with acceptor and donor bead mixes according to the manufacturer's protocol for a 1 plate/2-incubation suspension cell assay (AlphaLISA SureFire Ultra p-IKKα (Ser 176/180) Assay Kit (Perkin ElmeR). Plates were read using an EnVision® Multilabel Plate Reader (Perkin ElmeR). Within an experiment, a concentration response curve for each compound was run in duplicate. Signal obtained in the test wells was normalized using high signal (BAFF stimulated cells, DMSO, MG132) and low signal (unstimulated cells, DMSO) controls. To determine the IC50, a sigmoidal curve was fitted to the plot of % inhibition versus Log10 compound concentration.

The structures appear in SMILES notation. pIC50: −log10 of the molar value.

Sequence of Recombinant Human NF-Kappab-Inducing Kinase (NIK/MAP3K14) (Q99558 whole entry): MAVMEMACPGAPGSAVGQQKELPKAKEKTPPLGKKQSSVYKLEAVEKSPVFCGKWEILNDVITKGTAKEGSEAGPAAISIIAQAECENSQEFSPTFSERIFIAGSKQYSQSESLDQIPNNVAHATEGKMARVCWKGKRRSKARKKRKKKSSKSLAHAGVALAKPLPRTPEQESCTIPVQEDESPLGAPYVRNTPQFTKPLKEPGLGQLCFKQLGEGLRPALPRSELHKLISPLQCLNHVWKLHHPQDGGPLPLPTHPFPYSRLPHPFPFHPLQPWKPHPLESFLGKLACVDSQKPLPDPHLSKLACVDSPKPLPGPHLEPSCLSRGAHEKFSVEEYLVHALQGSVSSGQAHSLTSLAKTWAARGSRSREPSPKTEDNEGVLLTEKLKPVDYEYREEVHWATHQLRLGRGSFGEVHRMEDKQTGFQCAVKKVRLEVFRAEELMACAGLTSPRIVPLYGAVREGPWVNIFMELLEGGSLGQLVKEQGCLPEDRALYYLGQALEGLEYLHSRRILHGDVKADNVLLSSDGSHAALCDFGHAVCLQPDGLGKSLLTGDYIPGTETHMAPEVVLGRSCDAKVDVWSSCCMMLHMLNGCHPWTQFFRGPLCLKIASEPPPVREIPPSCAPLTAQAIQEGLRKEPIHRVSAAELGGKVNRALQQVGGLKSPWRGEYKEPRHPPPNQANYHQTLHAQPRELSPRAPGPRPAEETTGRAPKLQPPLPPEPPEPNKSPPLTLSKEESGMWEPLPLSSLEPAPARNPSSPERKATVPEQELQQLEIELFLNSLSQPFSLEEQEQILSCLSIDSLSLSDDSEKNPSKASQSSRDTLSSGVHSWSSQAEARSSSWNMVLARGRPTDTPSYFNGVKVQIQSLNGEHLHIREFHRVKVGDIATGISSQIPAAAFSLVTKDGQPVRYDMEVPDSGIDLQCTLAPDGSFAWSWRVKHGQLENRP

As to `CN1CCC(O)(c2cc(-c3cccc(-c4c[nH]c5ncccc45)c3)on2)C1=O` (racemic) [Example 9, (R,S)-3-(5-(3-(1H-Pyrrolo[2,3-b]pyridin-3-yl)phenyl)isoxazol-3-yl)-3-hydroxy-1-methylpyrrolidin-2-one], the pIC50 in test [1] was 6.30 to 7.00; in test [2], under 6.30.
As for `CN1CCC(O)(c2cn(-c3cccc(-c4nc(C(N)=O)c5ccccc5n4)c3)cn2)C1=O` (racemic) [Example 19, (R,S)-2-(3-(4-(3-Hydroxy-1-methyl-2-oxopyrrolidin-3-yl)-1H-imidazol-1-yl)phenyl)quinazoline-4-carboxamide], the pIC50 is over 7.00 in test [1] and under 6.30 in test [2].
For `CN1CCC(O)(c2cc(-c3cccc(-c4nccc(C(N)=O)n4)c3)on2)C1=O` (racemic) [Example 161, (R,S)-2-(3-(3-(3-Hydroxy-1-methyl-2-oxopyrrolidin-3-yl)isoxazol-5-yl)phenyl)pyrimidine-4-carboxamide], in that order: over 7.00 and under 6.30.
Take `CN1CCC(O)(c2cc(-c3cccc(-c4ncc5ccnc(N)c5n4)c3)on2)C1=O` (racemic) [Example 165]: the pIC50 in test [1] is over 7.00; in test [2], under 6.30.
On to `CN1CCC(O)(c2cc(-c3cccc(-n4nc(C(N)=O)c5ccccc54)c3)on2)C1=O` (racemic) [Example 167, (R,S)-1-(3-(3-(3-Hydroxy-1-methyl-2-oxopyrrolidin-3-yl)isoxazol-5-yl)phenyl)-1H-indazole-3-carboxamide], for which the pIC50 in test [1] was over 7.00; in test [2], 6.30 to 7.00.
Turning to `CN1CCC(O)(c2cc(-c3cccc(Nc4nc5c(N)ncnc5s4)c3)on2)C1=O` (racemic) [Example 176, (R,S)-3-(5-(3-((7-Aminothiazolo[5,4-d]pyrimidin-2-yl)amino)phenyl)isoxazol-3-yl)-3-hydroxy-1-methylpyrrolidin-2-one], the pIC50 in test [1] and in test [2] was under 6.30 in each case.
Turning to `CN1CC[C@@](O)(c2cc(C3CCCN(c4ccc5ncnc(N)c5n4)C3)no2)C1=O` (mixture of isomers) [Example 201, (3R)-3-(3-(1-(4-Aminopyrido[3,2-d]pyrimidin-6-yl)piperidin-3-yl)isoxazol-5-yl)-3-hydroxy-1-methylpyrrolidin-2-one], the pIC50 in test [1] was over 7.00; in test [2] it was under 6.30.
With `CN1CC[C@](O)(c2ncc(-c3cccc(-c4cccc(C(N)=O)n4)c3)s2)C1=O` (single isomer, unassigned) [Example 28], the pIC50 is 6.30 to 7.00 in test [1] and under 6.30 in test [2].
`CN1CC[C@@](O)(c2cnn(-c3cccc(-c4cccc(C(N)=O)n4)c3)c2)C1=O` (single isomer, unassigned) [Example 29]: the pIC50 in test [1] and in test [2] was under 6.30 each time.
Consider `CN1CC[C@@](O)(c2cc(-c3cccc(-c4cccc(C(N)=O)n4)c3)n(C)n2)C1=O` (single isomer, unassigned) [Example 30], for which the pIC50 in test [1] and in test [2] was under 6.30 throughout.
Consider `CN1CC[C@@](O)(c2cc(-c3cccc(-c4cccc(C(N)=O)n4)c3)[nH]n2)C1=O` (single isomer, unassigned) [Example 31], for which the pIC50 is 6.30 to 7.00 in test [1] and under 6.30 in test [2].
Turning to `[2H]c1nc(N)c2nc(-c3cccc(-c4cnc([C@@]5(O)CCN(C)C5=O)s4)c3)ccc2n1` (single isomer, unassigned) [Example 32], the values for the pIC50 in test [1] and in test [2] were over 7.00 and under 6.30, respectively.
Take `[2H]c1nc(N)c2nc(-c3cccc(-c4nc([C@]5(O)CCN(C)C5=O)cs4)c3)ccc2n1` (single isomer, unassigned) [Example 33]: the pIC50 in test [1] and in test [2] was under 6.30 in each case.
`[2H]c1nc(N)c2nc(-c3cccc(-c4n[nH]c([C@]5(O)CCN(C)C5=O)n4)c3)ccc2n1` (single isomer, unassigned) [Example 34]: the pIC50 in test [1] and in test [2] was under 6.30 throughout.
As for `[2H]c1nc(N)c2nc(-c3cccc(-c4cc([C@@]5(O)CCN(C)C5=O)n[nH]4)c3)ccc2n1` (single isomer, unassigned) [Example 37], the pIC50 in test [1] and in test [2] was under 6.30 throughout.
As to `[2H]c1nc(N)c2nc(-c3cccc(-c4cc([C@]5(O)CCN(C)C5=O)n[nH]4)c3)ccc2n1` (single isomer, unassigned) [Example 38], the pIC50 is over 7.00 in test [1] and under 6.30 in test [2].
As for `[2H]c1nc(N)c2nc(-c3cccc(-c4ncc([C@]5(O)CCN(C)C5=O)o4)c3)ccc2n1` (single isomer, unassigned) [Example 39], the pIC50 in test [1] and in test [2] was under 6.30 each time.
On to `[2H]c1nc(N)c2nc(-c3cccc(-c4ncc([C@@]5(O)CCN(C)C5=O)o4)c3)ccc2n1` (single isomer, unassigned) [Example 40], for which the pIC50 in test [1] and in test [2] was under 6.30 each time.
For `[2H]c1nc(N)c2nc(-c3cccc(-c4nc([C@]5(O)CCN(C)C5=O)co4)c3)ccc2n1` (single isomer, unassigned) [Example 41], the pIC50 in test [1] and in test [2] was under 6.30 throughout.
Turning to `[2H]c1nc(N)c2nc(-c3cccc(-c4cc([C@]5(O)CCN(C)C5=O)nn4C)c3)ccc2n1` (single isomer, unassigned) [Example 43], the pIC50 in test [1] was 6.30 to 7.00; in test [2] it was under 6.30.
With `[2H]c1nc(N)c2nc(-c3cccc(-c4cc([C@@]5(O)CCN(C)C5=O)nn4C)c3)ccc2n1` (single isomer, unassigned) [Example 44], the pIC50 in test [1] and in test [2] was under 6.30 throughout.
In the case of `Cc1cc(N2CCC[C@@H](c3cc([C@]4(O)CCN(C)C4=O)on3)C2)nc2c(N)ncnc12` (single isomer, unassigned) [Example 199], the pIC50 in test [1] is over 7.00; in test [2] it was under 6.30.
For `Cc1cc(N2CCC[C@H](c3cc([C@]4(O)CCN(C)C4=O)on3)C2)nc2c(N)ncnc12` (single isomer, unassigned) [Example 200], in that order: over 7.00 and under 6.30.
For `CN1CC[C@@](O)(c2cc([C@@H]3CCCN(c4ccc5ncnc(N)c5n4)C3)no2)C1=O` (single isomer, unassigned) [Example 202], in that order: over 7.00 and under 6.30.
For `CN1CC[C@@](O)(c2cc([C@H]3CCCN(c4ccc5ncnc(N)c5n4)C3)no2)C1=O` (single isomer, unassigned) [Example 203], in that order: over 7.00 and under 6.30.
In the case of `CN1CC[C@@](O)(c2cc(-c3cccc(-c4sc(Br)nc4C(N)=O)c3)no2)C1=O` (single isomer, unassigned) [Example 214], the pIC50 in test [1] and in test [2] was under 6.30 in each case.
Consider `CN1CC[C@@](O)(c2cc(-c3cccc(-c4nc5c(c(C(N)=O)n4)C4CCC(C5)O4)c3)[nH]n2)C1=O` (stereo in doubt) [Example 174, (5R,8S)-2-(3-(5-((R)-3-Hydroxy-1-methyl-2-oxopyrrolidin-3-yl)-1H-pyrazol-3-yl)phenyl)-6,7,8,9-tetrahydro-5H-5,8-epoxycyclohepta[d]pyrimidine-4-carboxamide], for which the pIC50 is 6.30 to 7.00 in test [1] and under 6.30 in test [2].

One may read the pIC50 as the negative decadic logarithm of the IC50, by convention in mol/L.
